Test results taken from ChEMBL document CHEMBL3885881, “DrugMatrix”.

Species on record: Rattus norvegicus
Assay: DrugMatrix - Regimen: Daily Repeat
Assay type: toxicity, organism-based, Sprague-Dawley
Design: regimen Daily Repeat, gender Male, age 6-8 weeks
Conditions: in vivo, po, route oral GAVAGE, vehicle 100 % WATER; for ABSOLUTE LYMPHOCYTE / ABSOLUTE MONOCYTE / ABSOLUTE SEGMENTED NEUTROPHIL / BASOPHIL / EOSINOPHIL / ERYTHROCYTE COUNT / HEMATOCRIT / LEUKOCYTE COUNT / LYMPHOCYTE / MEAN CORPUSCULAR HEMOGLOBIN / MEAN CORPUSCULAR HEMOGLOBIN CONCENTRATION / MEAN CORPUSCULAR VOLUME / MONOCYTE / NEUTROPHIL / NUCLEATED RED BLOOD CELLS / PLATELET COUNT / ABSOLUTE BASOPHIL / ABSOLUTE EOSINOPHIL: tissue Blood; for ALANINE AMINOTRANSFERASE / ALBUMIN / ALKALINE PHOSPHATASE / ASPARTATE AMINOTRANSFERASE / BLOOD UREA NITROGEN / CARBON DIOXIDE / CHLORIDE / CHOLESTEROL / CREATINE PHOSPHOKINASE / CREATININE / GLUCOSE / LACTATE DEHYDROGENASE / LIPASE / PHOSPHORUS / POTASSIUM / SODIUM / TOTAL BILIRUBIN / TOTAL PROTEIN / URIC ACID: tissue Plasma
[1] = 850 mg/kg, 72 h, dose level M1, time 3 day
[2] = 850 mg/kg, 120 h, dose level M1, time 5 day
[3] = 1500 mg/kg, 72 h, dose level High, time 3 day
[4] = 1500 mg/kg, 120 h, dose level High, time 5 day

SMILES: CCCC(CCC)C(=O)O [VALPROIC ACID]
- ABSOLUTE LYMPHOCYTE [1]: 8722.33 CELLS/uL
- ABSOLUTE MONOCYTE [1]: 267.67 CELLS/uL
- ABSOLUTE SEGMENTED NEUTROPHIL [1]: 836 CELLS/uL
- BASOPHIL [1]: 0%
- EOSINOPHIL [1]: 0.33%
- ERYTHROCYTE COUNT [1]: 5.4 x10E6/uL
- HEMATOCRIT [1]: 35.27%
- LEUKOCYTE COUNT [1]: 9.87 x10E3/uL
- LYMPHOCYTE [1]: 89%
- MEAN CORPUSCULAR HEMOGLOBIN [1]: 25.37 pg
- MEAN CORPUSCULAR HEMOGLOBIN CONCENTRATION [1]: 38.73 G/DL
- MEAN CORPUSCULAR VOLUME [1]: 65.5 fL
- MONOCYTE [1]: 2.67%
- NEUTROPHIL [1]: 8%
- NUCLEATED RED BLOOD CELLS [1]: 0 /100WBC
- PLATELET COUNT [1]: 1024 x10E3/uL
- ALANINE AMINOTRANSFERASE [1]: 50 u/L
- ALBUMIN [1]: 3.97 G/DL
- ALKALINE PHOSPHATASE [1]: 196.67 u/L
- ASPARTATE AMINOTRANSFERASE [1]: 87.67 u/L
- BLOOD UREA NITROGEN [1]: 13 mg/dL
- CARBON DIOXIDE [1]: 29 mmol/L
- CHLORIDE [1]: 99.33 MEQ/L
- CHOLESTEROL [1]: 57.67 mg/dL
- CREATINE PHOSPHOKINASE [1]: 134.67 u/L
- CREATININE [1]: 0.11 mg/dL
- GLUCOSE [1]: 145.67 mg/dL
- LACTATE DEHYDROGENASE [1]: 142.67 u/L
- LIPASE [1]: 9.33 u/L
- PHOSPHORUS [1]: 11.37 mg/dL
- POTASSIUM [1]: 6.32 MEQ/L
- SODIUM [1]: 143.5 MEQ/L
- TOTAL BILIRUBIN [1]: 0.23 mg/dL
- TOTAL PROTEIN [1]: 5.33 G/DL
- URIC ACID [1]: 1.57 mg/dL
- ABSOLUTE BASOPHIL [2]: 0 CELLS/uL
- ABSOLUTE EOSINOPHIL [2]: 50 CELLS/uL
- ABSOLUTE LYMPHOCYTE [2]: 6795.67 CELLS/uL
- ABSOLUTE MONOCYTE [2]: 121.33 CELLS/uL
- ABSOLUTE SEGMENTED NEUTROPHIL [2]: 433 CELLS/uL
- BASOPHIL [2]: 0%
- EOSINOPHIL [2]: 0.67%
- ERYTHROCYTE COUNT [2]: 5.21 x10E6/uL
- HEMATOCRIT [2]: 33.77%
- LEUKOCYTE COUNT [2]: 7.4 x10E3/uL
- LYMPHOCYTE [2]: 92%
- MEAN CORPUSCULAR HEMOGLOBIN [2]: 24.63 pg
- MEAN CORPUSCULAR HEMOGLOBIN CONCENTRATION [2]: 38 G/DL
- MEAN CORPUSCULAR VOLUME [2]: 64.83 fL
- MONOCYTE [2]: 1.67%
- NEUTROPHIL [2]: 5.67%
- NUCLEATED RED BLOOD CELLS [2]: 0 /100WBC
- PLATELET COUNT [2]: 851.33 x10E3/uL
- ALANINE AMINOTRANSFERASE [2]: 58.33 u/L
- ALBUMIN [2]: 3.83 G/DL
- ALKALINE PHOSPHATASE [2]: 272 u/L
- ASPARTATE AMINOTRANSFERASE [2]: 99 u/L
- BLOOD UREA NITROGEN [2]: 12.67 mg/dL
- CARBON DIOXIDE [2]: 31.67 mmol/L
- CHLORIDE [2]: 100 MEQ/L
- CHOLESTEROL [2]: 60 mg/dL
- CREATINE PHOSPHOKINASE [2]: 402 u/L
- CREATININE [2]: 0.28 mg/dL
- GLUCOSE [2]: 139.67 mg/dL
- LACTATE DEHYDROGENASE [2]: 186.33 u/L
- LIPASE [2]: 11 u/L
- PHOSPHORUS [2]: 11.17 mg/dL
- POTASSIUM [2]: 6.05 MEQ/L
- SODIUM [2]: 143.73 MEQ/L
- TOTAL BILIRUBIN [2]: 0.2 mg/dL
- TOTAL PROTEIN [2]: 5.83 G/DL
- URIC ACID [2]: 0.5 mg/dL
- ABSOLUTE BASOPHIL [3]: 0 CELLS/uL
- ABSOLUTE EOSINOPHIL [3]: 0 CELLS/uL
- ABSOLUTE LYMPHOCYTE [3]: 4940.67 CELLS/uL
- ABSOLUTE MONOCYTE [3]: 35.67 CELLS/uL
- ABSOLUTE SEGMENTED NEUTROPHIL [3]: 257 CELLS/uL
- BASOPHIL [3]: 0%
- EOSINOPHIL [3]: 0%
- ERYTHROCYTE COUNT [3]: 5.94 x10E6/uL
- HEMATOCRIT [3]: 37.3%
- LEUKOCYTE COUNT [3]: 5.23 x10E3/uL
- LYMPHOCYTE [3]: 94.33%
- MEAN CORPUSCULAR HEMOGLOBIN [3]: 23.37 pg
- MEAN CORPUSCULAR HEMOGLOBIN CONCENTRATION [3]: 37.17 G/DL
- MEAN CORPUSCULAR VOLUME [3]: 62.83 fL
- MONOCYTE [3]: 0.67%
- NEUTROPHIL [3]: 5%
- NUCLEATED RED BLOOD CELLS [3]: 0 /100WBC
- PLATELET COUNT [3]: 901.67 x10E3/uL
- ALANINE AMINOTRANSFERASE [3]: 32.33 u/L
- ALBUMIN [3]: 4.5 G/DL
- ALKALINE PHOSPHATASE [3]: 225.67 u/L
- ASPARTATE AMINOTRANSFERASE [3]: 77.67 u/L
- BLOOD UREA NITROGEN [3]: 10.67 mg/dL
- CARBON DIOXIDE [3]: 26 mmol/L
- CHLORIDE [3]: 104 MEQ/L
- CHOLESTEROL [3]: 42.67 mg/dL
- CREATINE PHOSPHOKINASE [3]: 120 u/L
- CREATININE [3]: 0.22 mg/dL
- GLUCOSE [3]: 138 mg/dL
- LACTATE DEHYDROGENASE [3]: 112 u/L
- LIPASE [3]: 7.67 u/L
- PHOSPHORUS [3]: 14.3 mg/dL
- POTASSIUM [3]: 6.21 MEQ/L
- SODIUM [3]: 146.87 MEQ/L
- TOTAL BILIRUBIN [3]: 0.1 mg/dL
- TOTAL PROTEIN [3]: 5.87 G/DL
- URIC ACID [3]: 1.7 mg/dL
- ABSOLUTE BASOPHIL [4]: 0 CELLS/uL
- ABSOLUTE EOSINOPHIL [4]: 7.25 CELLS/uL
- ABSOLUTE LYMPHOCYTE [4]: 3923.75 CELLS/uL
- ABSOLUTE MONOCYTE [4]: 124 CELLS/uL
- ABSOLUTE SEGMENTED NEUTROPHIL [4]: 320 CELLS/uL
- BASOPHIL [4]: 0%
- EOSINOPHIL [4]: 0.25%
- ERYTHROCYTE COUNT [4]: 6.03 x10E6/uL
- HEMATOCRIT [4]: 36.38%
- LEUKOCYTE COUNT [4]: 4.38 x10E3/uL
- LYMPHOCYTE [4]: 91%
- MEAN CORPUSCULAR HEMOGLOBIN [4]: 22.62 pg
- MEAN CORPUSCULAR HEMOGLOBIN CONCENTRATION [4]: 37.5 G/DL
- MEAN CORPUSCULAR VOLUME [4]: 60.35 fL
- MONOCYTE [4]: 2.25%
- NEUTROPHIL [4]: 6.5%
- NUCLEATED RED BLOOD CELLS [4]: 0 /100WBC
- PLATELET COUNT [4]: 549.5 x10E3/uL
- ALANINE AMINOTRANSFERASE [4]: 52.5 u/L
- ALBUMIN [4]: 4.57 G/DL
- ALKALINE PHOSPHATASE [4]: 204.25 u/L
- ASPARTATE AMINOTRANSFERASE [4]: 132 u/L
- BLOOD UREA NITROGEN [4]: 15.75 mg/dL
- CARBON DIOXIDE [4]: 28 mmol/L
- CHLORIDE [4]: 105.75 MEQ/L
- CHOLESTEROL [4]: 53.5 mg/dL
- CREATINE PHOSPHOKINASE [4]: 1153.75 u/L
- CREATININE [4]: 0.25 mg/dL
- GLUCOSE [4]: 150.25 mg/dL
- LACTATE DEHYDROGENASE [4]: 237.5 u/L
- LIPASE [4]: 8.25 u/L
- PHOSPHORUS [4]: 13.5 mg/dL
- POTASSIUM [4]: 6.62 MEQ/L
- SODIUM [4]: 146.95 MEQ/L
- TOTAL BILIRUBIN [4]: 0.15 mg/dL
- TOTAL PROTEIN [4]: 5.9 G/DL
- URIC ACID [4]: 1.88 mg/dL
